# Experimental data: article PMC6923863 (BMC Pharmacology & Toxicology, 2019)
# pIC50: −log10 of the molar value.
# Columns and labels:
# [1] = test system: Sprague-Dawley rats; assay: Thermal tail flick latency in rats with saline or morphine osmotic minipumps (opioid tolerance); format: in vivo, rat
# [2] = test system: Sprague-Dawley rats; assay: Behavioural dysfunction scoring in minipump rats; conditions: 12 mg/kg IV over 30 s
# [3] = target: Ca^2+ Channel L-Type (Rattus norvegicus, UniProt P22002); format: binding; conditions: only quoted where inhibition > 15%, read-out: Percent Inhibition at 10 μM
# [4] = target: T1, HCN1 K^+ Channel (Homo sapiens, UniProt O60741); assay: Molecular target binding profile: patch-clamp functional assay (Eurofins Panlabs 952727); format: cell-based
# T1 construct: Eurofins Panlabs Ltd., Taipei, Taiwan 952727
# T1 sequence (O60741 1-890): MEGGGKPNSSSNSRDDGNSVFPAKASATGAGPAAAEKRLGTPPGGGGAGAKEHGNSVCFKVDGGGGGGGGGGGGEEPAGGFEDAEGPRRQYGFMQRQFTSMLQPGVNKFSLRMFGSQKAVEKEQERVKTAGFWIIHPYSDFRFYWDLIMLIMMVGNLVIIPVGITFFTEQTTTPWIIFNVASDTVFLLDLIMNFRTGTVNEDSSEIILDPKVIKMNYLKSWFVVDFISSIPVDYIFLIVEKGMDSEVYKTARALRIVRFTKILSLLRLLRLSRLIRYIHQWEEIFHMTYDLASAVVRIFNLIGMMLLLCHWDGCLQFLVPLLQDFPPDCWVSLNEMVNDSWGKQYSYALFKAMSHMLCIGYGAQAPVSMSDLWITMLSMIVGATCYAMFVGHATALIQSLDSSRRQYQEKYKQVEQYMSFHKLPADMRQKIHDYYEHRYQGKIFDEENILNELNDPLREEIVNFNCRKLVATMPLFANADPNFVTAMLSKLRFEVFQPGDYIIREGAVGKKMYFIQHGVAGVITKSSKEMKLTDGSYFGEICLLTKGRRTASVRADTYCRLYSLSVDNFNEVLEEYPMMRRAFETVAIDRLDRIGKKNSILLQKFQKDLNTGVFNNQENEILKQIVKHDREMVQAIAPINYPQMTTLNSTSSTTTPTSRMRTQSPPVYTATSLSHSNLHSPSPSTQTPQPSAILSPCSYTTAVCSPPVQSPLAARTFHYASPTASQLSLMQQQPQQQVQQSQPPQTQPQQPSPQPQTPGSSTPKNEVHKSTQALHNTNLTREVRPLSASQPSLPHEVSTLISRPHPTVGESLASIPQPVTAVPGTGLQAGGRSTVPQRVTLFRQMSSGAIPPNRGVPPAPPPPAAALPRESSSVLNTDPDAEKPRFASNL
# [5] = test system: GABAA Receptor
# [6] = test system: Sprague-Dawley rats; assay: Thermal sensitivity (tail flick latency) testing after bolus injection or infusion; format: in vivo, rat; conditions: pre-emptive analgesia, hypnotic and sub-hypnotic IV dosing regimens
# [7] = test system: Sprague-Dawley rats; assay: Loss of righting reflex (LORR) following intravenous administration; format: in vivo, rat; conditions: for LORR duration, mean (SEM): 12 mg/kg IV over 30 s
# [8] = test system: Sprague-Dawley rats; assay: Pre-pulse inhibition (PPI) of acoustic startle and behavioural testing; format: in vivo, rat
# Chain of Ca^2+ Channel L-Type (P22002 whole entry): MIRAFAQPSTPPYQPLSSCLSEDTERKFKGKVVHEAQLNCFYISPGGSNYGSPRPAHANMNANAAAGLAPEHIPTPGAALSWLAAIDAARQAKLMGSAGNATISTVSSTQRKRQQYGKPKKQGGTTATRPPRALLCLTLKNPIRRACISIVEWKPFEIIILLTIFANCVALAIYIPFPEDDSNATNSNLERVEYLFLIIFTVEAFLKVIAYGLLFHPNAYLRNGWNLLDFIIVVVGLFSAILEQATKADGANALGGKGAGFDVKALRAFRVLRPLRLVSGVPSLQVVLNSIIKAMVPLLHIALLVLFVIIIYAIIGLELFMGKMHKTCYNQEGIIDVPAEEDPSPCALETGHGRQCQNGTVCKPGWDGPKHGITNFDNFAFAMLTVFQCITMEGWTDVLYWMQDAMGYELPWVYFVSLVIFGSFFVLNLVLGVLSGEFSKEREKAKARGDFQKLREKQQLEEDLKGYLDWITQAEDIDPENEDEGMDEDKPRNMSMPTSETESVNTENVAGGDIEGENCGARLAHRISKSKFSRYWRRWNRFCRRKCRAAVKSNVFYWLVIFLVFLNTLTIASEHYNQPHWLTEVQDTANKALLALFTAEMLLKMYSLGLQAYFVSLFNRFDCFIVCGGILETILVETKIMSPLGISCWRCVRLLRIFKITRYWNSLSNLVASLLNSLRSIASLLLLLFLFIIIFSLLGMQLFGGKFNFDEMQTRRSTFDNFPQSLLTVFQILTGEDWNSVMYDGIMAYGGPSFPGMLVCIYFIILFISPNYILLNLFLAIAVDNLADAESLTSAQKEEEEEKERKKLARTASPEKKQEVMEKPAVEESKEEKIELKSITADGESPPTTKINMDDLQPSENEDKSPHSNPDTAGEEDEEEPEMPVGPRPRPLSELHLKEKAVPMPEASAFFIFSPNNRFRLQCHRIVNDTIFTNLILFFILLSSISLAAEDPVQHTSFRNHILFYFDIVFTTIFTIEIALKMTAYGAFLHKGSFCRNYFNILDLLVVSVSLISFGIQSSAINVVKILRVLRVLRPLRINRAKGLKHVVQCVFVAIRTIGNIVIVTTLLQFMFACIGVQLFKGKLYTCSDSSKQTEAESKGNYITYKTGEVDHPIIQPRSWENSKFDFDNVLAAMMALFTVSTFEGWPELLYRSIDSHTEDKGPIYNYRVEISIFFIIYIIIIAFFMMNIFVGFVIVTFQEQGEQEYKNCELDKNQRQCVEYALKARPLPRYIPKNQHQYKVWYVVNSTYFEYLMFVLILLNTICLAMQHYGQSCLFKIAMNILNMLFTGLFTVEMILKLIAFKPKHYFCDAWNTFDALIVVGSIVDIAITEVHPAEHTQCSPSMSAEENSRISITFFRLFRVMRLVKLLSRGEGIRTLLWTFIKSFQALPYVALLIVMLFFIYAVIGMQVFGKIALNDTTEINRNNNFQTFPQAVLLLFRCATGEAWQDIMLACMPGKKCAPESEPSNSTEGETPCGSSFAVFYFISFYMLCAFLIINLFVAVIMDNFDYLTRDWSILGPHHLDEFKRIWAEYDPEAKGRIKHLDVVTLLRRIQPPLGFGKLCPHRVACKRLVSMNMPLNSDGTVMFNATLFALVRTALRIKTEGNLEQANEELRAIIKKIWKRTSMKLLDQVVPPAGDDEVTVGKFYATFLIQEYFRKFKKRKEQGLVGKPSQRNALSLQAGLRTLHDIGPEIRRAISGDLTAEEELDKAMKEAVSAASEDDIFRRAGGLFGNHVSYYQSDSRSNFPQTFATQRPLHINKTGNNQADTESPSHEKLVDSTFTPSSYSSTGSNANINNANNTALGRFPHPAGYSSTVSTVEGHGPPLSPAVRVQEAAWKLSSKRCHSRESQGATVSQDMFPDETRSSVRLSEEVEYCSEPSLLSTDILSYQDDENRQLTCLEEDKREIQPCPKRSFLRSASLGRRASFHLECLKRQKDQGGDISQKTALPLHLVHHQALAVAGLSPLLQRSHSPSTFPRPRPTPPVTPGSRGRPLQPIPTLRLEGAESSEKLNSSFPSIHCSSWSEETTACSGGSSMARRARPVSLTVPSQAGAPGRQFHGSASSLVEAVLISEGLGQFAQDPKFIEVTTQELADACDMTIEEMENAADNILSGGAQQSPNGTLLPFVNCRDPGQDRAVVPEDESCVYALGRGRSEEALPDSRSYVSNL
compound,measurement,setting,value
CN1CC[C@]23c4c5ccc(O)c4O[C@H]2[C@@H](O)C=C[C@H]3[C@H]1C5 [morphine],Thermal tail flick latency compared with vehicle treated animals,[1]; 24 h of continuous morphine treatment via minipump (6 mg daily),significant antinociception
same,Time to development of tolerance to thermal tail flick stimuli,[1]; continuous subcutaneous pump administration of morphine (6 mg/day) in rats,3 to 4 days
CNC1(c2ccccc2Cl)CCCCC1=O (stereo not drawn) [Ketamine],Time of gradual return to normal behavioural patterns,[2]; minipump rats,40 to 50 min
same,Time of maximal behavioural dysfunction,[2]; minipump rats,5 min
same,Behavioural dysfunction score / behavioural aberration,"[2]; saline or morphine minipump rats, days one and six",profound behavioural aberration
same,inhibition at 10 µM,[3],24%
same,pIC50,[4],< 4.00
same,inhibition at 100 µM,"[4]; patch-clamp assay quoted at 100 μM, not 10 μM (top dose employed), read-out: Percent Inhibition",15%
same,Percent Inhibition at 10 μM,"[5]; 10 μM, only quoted where inhibition > 15%",− (Percent Inhibition at 10 μM only quoted where inhibition > 15%)
same,pIC50,[5]; radioligand binding,< 5.00
same,Thermal tail flick latency,[6],prolonged thermal tail flick latency
same,"Thermal tail flick latency, augmentation of morphine analgesia","[1]; 12 mg/kg IV over 30 s, morphine minipump animals, day one",augmented morphine mediated analgesia
same,Thermal tail flick latency in opioid tolerant rats,"[1]; 12 mg/kg IV over 30 s, morphine minipump rats, day six",TFL prolongation of similar magnitude to that of saline mini-pump subjects
same,Thermal tail flick latency,"[1]; 12 mg/kg IV over 30 s, opioid-naïve rats, day one post saline minipump insertion",Prolongation of thermal tail flick
same,Thermal tail flick latency,"[1]; 12 mg/kg IV over 30 s, saline minipump rats, day six",prolonged tail flick latency
same,"LORR duration, mean (SEM)","[7]; rats with morphine minipump (6 mg daily), day 1",247.0 (28.4) seconds
same,"LORR duration, mean (SEM)","[7]; rats with morphine minipump (6 mg daily), day 6",272.5 (12.9) seconds
same,"LORR duration, mean (SEM)","[7]; rats with saline minipump, day 1",189.2 (23.8) seconds
same,"LORR duration, mean (SEM)","[7]; rats with saline minipump, day 6",277.0 (16.9) seconds
same,"Induction of LORR, animals affected","[7]; 12 mg/kg over 30 s, rats with saline or morphine minipumps, days one and six",all animals
same,ED50,"[7]; Rattus norvegicus, rats, 30 s bolus intravenous injection",9.6 mg/kg
same,"Duration of loss of righting, mean (SEM)","[7]; rats, 10 minute hypnotic IV infusion (KEA-1010 total 56 mg/kg; ketamine total 28 mg/kg)",418.0 (86.4) seconds
same,"Duration of loss of righting, mean (SEM)","[7]; rats, hypnotic IV bolus over 15 s (KEA-1010 11 mg/kg; ketamine 10 mg/kg)",491.8 (67.7) seconds
same,Slope of LORR duration vs. dose curves,"[7]; rats, intravenous injection over 30 s",69.8 s/mg/kg
same,Pre-pulse inhibition (PPI) effect,"[8]; 5 minutes after IV dosing, ketamine 10 mg/kg, KEA-1010 11 mg/kg, KEA-1037 10 mg/kg",disrupted the PPI effect
same,Percent PPI or startle amplitude,[8]; 30 min after drug administration,No statistically significant differences
same,Ataxia,"[8]; behavioural testing post dosing, ketamine 10 mg/kg, KEA-1010 11 mg/kg, KEA-1037 10 mg/kg IV",greater ataxia at 23 and 48 min post dosing compared with vehicle
